# Laboratory results taken from patent publication US20160206629A1, “TOPICAL COMPOSITION COMPRISING A FILM-FORMING POLYMER FOR DELIVERING AN ACTIVE INGREDIENT TO SKIN” (LEO Pharma A/S, priority 2012, published 2016).
# Assay: In vitro skin penetration, full thickness pig ear skin, Franz-type diffusion cells, 3H-BMV
# Assay type: in vitro ADME
# Experimental: To investigate the skin penetration and permeation of BMV from compositions according to example 1, a skin diffusion experiment was conducted. Full thickness skin from pig ears was used in the study. The skin was cleaned and kept frozen at −18° C. before use. On the day prior to the experiment the skin was placed in a refrigerator (5±3° C.) for slow defrosting.
# Static Franz-type diffusion cells with an available diffusion area of 3.14 cm^2 and receptor volumes ranging from 8.6 to 11.1 ml were used in substantially the manner described by T. J. Franz, “The finite dose technique as a valid in vitro model for the study of percutaneous absorption in man”, in Current Problems in Dermatology, 1978, J. W. H. Mall (Ed.), Karger, Basel, pp. 58-68. The specific volume was measured and registered for each cell. A magnetic bar was placed in the receptor compartment of each cell. After mounting the skin, physiological saline (35° C.) was filled into each receptor chamber for hydration of the skin. The cells were placed in a thermally controlled water bath which was placed on a magnetic stirrer set at 300 rpm. […]
# Samples (1 ml) of the receptor fluid remaining in the diffusion cell were collected and analysed.
# The concentration of ^3H-BMV in the samples were determined by liquid scintillation counting.
smiles,measurement,setting,value
"CCCCC(=O)O[C@]1(C(=O)CO)[C@@H](C)C[C@H]2[C@@H]3CCC4=CC(=O)C=C[C@]4(C)[C@@]3(F)[C@@H](O)C[C@@]21C [BMV, betamethasone valerate]",permeation of BMV into the receptor medium,receptor medium acetate buffer pH 5.5 with 1% methyl-β-cyclodextrin,None
same,accumulation of BMV in skin layers,"stratum corneum versus epidermis, FIG. 3",mainly accumulated in the stratum corneum
